Values quoted from earlier work in PMC6591635, “Advancing the Therapeutic Potential of Indoleamides for Tuberculosis” (Antimicrobial Agents and Chemotherapy, 2019).
Values after ≈ are worked out from the molar mass of the structure shown.

Tested on: M. tuberculosis H37Rv
Settings: M. tuberculosis H37Rv; concentration used as 1× MIC; cited from earlier work

Cc1cc(C)c2cc(C(=O)NC3CCCCCCC3)[nH]c2c1 [compound 1]
MIC (1× MIC): 4 ng/mL (≈ 0.0134 µM)
